Results reported in patent publication US6635771B2, “N-benzhydryl indole compounds” (Wyeth, priority 2001, dated 2003).

Molecular target: T1, cPLA2 (Homo sapiens, UniProt P47712)
T1 sequence (P47712 1-749): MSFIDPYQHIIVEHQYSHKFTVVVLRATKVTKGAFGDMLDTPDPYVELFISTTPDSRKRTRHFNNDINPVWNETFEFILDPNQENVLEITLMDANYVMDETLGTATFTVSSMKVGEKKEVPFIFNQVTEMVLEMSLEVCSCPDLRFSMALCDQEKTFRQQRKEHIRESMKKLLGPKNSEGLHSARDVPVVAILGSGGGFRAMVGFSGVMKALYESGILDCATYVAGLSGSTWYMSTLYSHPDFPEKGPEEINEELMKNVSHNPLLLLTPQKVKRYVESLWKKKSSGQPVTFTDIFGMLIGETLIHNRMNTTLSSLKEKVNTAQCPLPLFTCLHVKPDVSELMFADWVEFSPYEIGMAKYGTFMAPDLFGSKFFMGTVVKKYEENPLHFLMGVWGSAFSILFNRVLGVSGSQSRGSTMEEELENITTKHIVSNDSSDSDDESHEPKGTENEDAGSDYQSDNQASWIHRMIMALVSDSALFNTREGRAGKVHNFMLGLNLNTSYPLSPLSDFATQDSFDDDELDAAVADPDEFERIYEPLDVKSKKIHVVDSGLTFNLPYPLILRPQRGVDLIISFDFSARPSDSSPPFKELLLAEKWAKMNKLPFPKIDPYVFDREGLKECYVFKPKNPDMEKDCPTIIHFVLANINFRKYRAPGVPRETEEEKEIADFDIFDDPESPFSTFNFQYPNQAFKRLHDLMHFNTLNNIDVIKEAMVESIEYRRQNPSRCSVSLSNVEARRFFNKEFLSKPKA
Experiment: Coumarine Assay
Assay type: biochemical
Details: 60 μM 7-hydroxycoumarinyl 6-heptenoate substrate, 4 μg cPLA2, pH 7.5, fluorescence ex 360 nm / em 460 nm; read-out: Coumarin IC50

Row | IC50 [nM] | Compound
1 | 2000 | CC(C)S(=O)(=O)NCCc1c(CCOc2ccc(C(=O)O)cc2)c2cc(Cl)ccc2n1C(c1ccccc1)c1ccccc1 [Example 2, 4-[2-(1-Benzhydryl-5-chloro-2-{2-[(isopropylsulfonyl)amino]ethyl}-1H-indol-3-yl)ethoxy]benzoic acid]
2 | 2500 | CCCCS(=O)(=O)NCCc1c(CCOc2ccc(C(=O)O)cc2)c2cc(Cl)ccc2n1C(c1ccccc1)c1ccccc1 [Example 3, 4-[2-(1-Benzhydryl-2-{2-[(butylsulfonyl)amino]ethyl}-5-chloro-1H-indol-3-yl)ethoxy]benzoic acid]
3 | 56000 | Cn1cnc(S(=O)(=O)NCCc2c(CCOc3ccc(C(=O)O)cc3)c3cc(Cl)ccc3n2C(c2ccccc2)c2ccccc2)c1 [Example 4, 4-{2-[1-Benzhydryl-5-chloro-2-(2{[(1-methyl-1H-imidazol-4-yl)sulfonyl]amino}ethyl)-1H-indol-3-yl]ethoxy}benzoic acid]
4 | 3000 | O=C(O)c1ccc(OCCc2c(CCNS(=O)(=O)c3cnc(Cl)c(Br)c3)n(C(c3ccccc3)c3ccccc3)c3ccc(Cl)cc23)cc1 [Example 5, 4-{2-[1-Benzhydryl-2-(2-{[(5-bromo6-chloro-3-pyridinyl)sulfonyl]amino}ethyl)-5-chloro-1H-indol-3-yl]ethoxy}benzoic acid]
5 | 2000 | CC1(C)C2CC[C@]1(CS(=O)(=O)NCCc1c(CCOc3ccc(C(=O)O)cc3)c3cc(Cl)ccc3n1C(c1ccccc1)c1ccccc1)C(=O)C2 [Example 6, 4-[2-(1-Benzhydryl-5-chloro-2-{2-[({[(1R)-7,7-dimethyl-2-oxobicyclo[2.2.1]hept-1-yl]methyl}sulfonyl)amino]ethyl}-1H-indol-3-yl)ethoxy]benzoic acid]
6 | 550 | CS(=O)(=O)CS(=O)(=O)NCCc1c(CCOc2ccc(C(=O)O)cc2)c2cc(Cl)ccc2n1C(c1ccccc1)c1ccccc1 [Example 7, 4-(2-(1-Benzhydryl-5-chloro-2-[2-({[(methylsulfonyl)methyl]sulfonyl}amino)ethyl]-1H-indol-3-yl}ethoxy)benzoic acid]
7 | 2000 | O=C(O)c1ccc(OCCc2c(CCNS(=O)(=O)CCc3cccc4ccccc34)n(C(c3ccccc3)c3ccccc3)c3ccc(Cl)cc23)cc1 [Example 8]
8 | 700 | O=C(O)c1ccc(OCCc2c(CCNS(=O)(=O)Cc3ccccc3[N+](=O)[O-])n(C(c3ccccc3)c3ccccc3)c3ccc(Cl)cc23)cc1 [Example 9, 4-{2-[1-Benzhydryl-5-chloro-2-(2-[({2-nitrobenzyl}-sulfonyl)amino]ethyl}-1H-indol-3-yl)ethoxy]benzoic acid]
9 | 640 | O=C(O)c1ccc(OCCc2c(CCNS(=O)(=O)Cc3ccc(C(F)(F)F)cc3)n(C(c3ccccc3)c3ccccc3)c3ccc(Cl)cc23)cc1 [Example 13]
10 | 800 | O=C(O)c1ccc(OCCc2c(CCNS(=O)(=O)Cc3ccc(F)cc3)n(C(c3ccccc3)c3ccccc3)c3ccc(Cl)cc23)cc1 [Example 14, 4-{2-[1-Benzhydryl-5-chloro-2-(2-{[(4-fluorobenzyl)sulfonyl]amino}-ethyl)-1H-indol-3-yl]ethoxy}benzoic acid]
11 | 200 | CN(C)S(=O)(=O)NCCc1c(CCOc2ccc(C(=O)O)cc2)c2cc(Cl)ccc2n1C(c1ccccc1)c1ccccc1 [Example 17, 4-{2-[1-Benzhydryl-5-chloro-2-(2-{[(dimethylamino)sulfonyl]amino}ethyl)-1H-indol-3-yl]ethoxy}benzoic acid]
12 | 400 | O=C(O)c1ccc(OCCc2c(CCNS(=O)(=O)Cc3ccc(F)c(F)c3)n(C(c3ccccc3)c3ccccc3)c3ccc(Cl)cc23)cc1 [Example 18, 4-{2-[1-Benzhydryl-5-chloro-2-(2{[(3,4-difluorobenzyl)sulfonyl]amino}-ethyl)-1H-indol-3-yl]ethoxy}benzoic acid]
13 | 310 | O=C(O)c1ccc(OCCc2c(CCNS(=O)(=O)Cc3ccc4ccccc4c3)n(C(c3ccccc3)c3ccccc3)c3ccc(Cl)cc23)cc1 [Example 19, 4-{2-[1-benzhydryl-5-chloro-2-(2{[(2-naphthylmethyl)sulfonyl]amino}ethyl)-1H-indol-3-yl]ethoxy}benzoic acid]
14 | 1100 | O=C(O)c1ccc(OCCc2c(CCNS(=O)(=O)Cc3cccc(C(=O)O)c3)n(C(c3ccccc3)c3ccccc3)c3ccc(Cl)cc23)cc1 [Example 20, 3-({[(2-{1-benzhydryl-3-[2-(4-carboxyphenoxy)ethyl]-5-chloro-1H-indol-2-yl}ethyl)amino]sulfonyl}methyl)benzoic acid]
15 | 1800 | O=C(O)c1ccc(OCCc2c(CCNS(=O)(=O)C(F)(F)F)n(C(c3ccccc3)c3ccccc3)c3ccc(Cl)cc23)cc1 [Example 22, 4-{2-[1-benzhydryl-5-chloro-2-(2-{[(trifluoromethyl)sulfonyl]amino}ethyl)-1H-indol-3-yl]ethoxy}benzoic acid]
16 | 1500 | O=C(O)c1ccc(OCCc2c(CCNS(=O)(=O)C3CC3)n(C(c3ccccc3)c3ccccc3)c3ccc(Cl)cc23)cc1 [Example 23, 4-[2-(1-benzhydryl-5-chloro-2-{2-[(cyclopropylsulfonyl)amino]ethyl}-1H-indol-3-yl)ethoxy]benzoic acid]
17 | 340 | O=C(O)c1ccc(OCCc2c(CCNS(=O)(=O)Cc3cc(C(F)(F)F)cc(C(F)(F)F)c3)n(C(c3ccccc3)c3ccccc3)c3ccc(Cl)cc23)cc1 [Example 24, 4-(2-{1-benzhydryl-2-[2-({[3,5-bis(trifluoromethyl)benzyl]sulfonyl}amino)ethyl]-5-chloro-1H-indol-3-yl}ethoxy)benzoic acid]
18 | 3400 | O=C(O)c1ccc(OCCc2c(CCNS(=O)(=O)c3ccccc3C(=O)O)n(C(c3ccccc3)c3ccccc3)c3ccc(Cl)cc23)cc1 [Example 25, 2-{[(2-{1-benzhydryl-3-[2-(4-carboxyphenoxy)ethyl]-5-chloro-1H-indol-2-yl}ethyl)amino]sulfonyl}benzoic acid]
19 | 1100 | O=C(O)c1ccc(OCCc2c(CCNS(=O)(=O)c3ccc4ccccc4c3)n(C(c3ccccc3)c3ccccc3)c3ccc(Cl)cc23)cc1 [Example 26, 4-[2-(1-benzhydryl-5-chloro-2-{2-[(2-naphthylsulfonyl)amino]ethyl}-1H-indol-3-yl)ethoxy]benzoic acid]
20 | 800 | O=C(O)c1ccc(OCCc2c(CCNS(=O)(=O)c3cc(Cl)cc(Cl)c3)n(C(c3ccccc3)c3ccccc3)c3ccc(Cl)cc23)cc1 [Example 27, 4-{2-[1-benzhydryl-5-chloro-2-(2-{[(3,5-dichlorophenyl)sulfonyl]amino}ethyl)-1H-indol-3-yl]ethoxy}benzoic acid]
21 | 950 | O=C(O)c1ccc(OCCc2c(CCNS(=O)(=O)c3ccc(Cl)c(Cl)c3)n(C(c3ccccc3)c3ccccc3)c3ccc(Cl)cc23)cc1 [Example 28, 4-{2-[1-benzhydryl-5-chloro-2-(2{[(3,4-dichlorophenyl)sulfonyl]amino}ethyl)-1H-indol-3-yl]ethoxy}benzoic acid]
22 | 150 | O=C(O)c1ccc(OCCc2c(CCNS(=O)(=O)Cc3ccc(Cl)cc3Cl)n(C(c3ccccc3)c3ccccc3)c3ccc(Cl)cc23)cc1 [Example 30, 4-{2-[1-benzhydryl-5-chloro-2-(2-{[(2,4-dichlorobenzyl)sulfonyl]amino}ethyl)-1H-indol-3-yl]ethoxy}benzoic acid]
23 | 85 | O=C(O)c1ccc(OCCc2c(CCNS(=O)(=O)Cc3ccc(Cl)cc3[N+](=O)[O-])n(C(c3ccccc3)c3ccccc3)c3ccc(Cl)cc23)cc1 [Example 32, 4-{2-[1-benzhydryl-5-chloro-2-(2-{[(4-chloro-2-nitrobenzyl)sulfonyl]amino}ethyl)-1H-indol-3-yl]ethoxy}benzoic acid]
24 | 500 | N#Cc1cccc(CS(=O)(=O)NCCc2c(CCOc3ccc(C(=O)O)cc3)c3cc(Cl)ccc3n2C(c2ccccc2)c2ccccc2)c1 [Example 36, 4-{2-[1-Benzhydryl-5-chloro-2-(2-{[(3-cyanobenzyl)sulfonyl]amino}ethyl)-1H-indol-3-yl]ethoxy}benzoic acid]

Row | Compound | IC50 [nM]
25 | 2-(2{[(2-Aminobenzyl)sulfonyl]amino}ethyl)-4-(2-[1-benzhydryl-5-chloro-1H-indol-3-yl]ethoxy}benzoic acid [Example 16] | 980
26 | 4-{2-[1-Benzhydryl-5-chloro-2-(2-{[(2-cyanobenzyl)sulfonyl]amino}ethyl)-1H-indol-3-yl]ethoxy)benzoic acid [Example 35] | 330
27 | O=C(O)c1ccc(OCCc2c(CCNS(=O)(=O)Cc3ccccc3)n(C(c3ccccc3)c3ccccc3)c3ccc(Cl)cc23)cc1 [Example 1, 4-[2-(1-Benzhydryl-2-{2[(benzylsulfonyl)amino]ethyl}-5-chloro-1H-indol-3-yl)ethoxyl]benzoic acid] | 420
28 | O=C(O)c1ccc(OCCc2c(CCNS(=O)(=O)Cc3cccc(Cl)c3Cl)n(C(c3ccccc3)c3ccccc3)c3ccc(Cl)cc23)cc1 [Example 29, 4-{2-[1-benzhydryl-5-chloro-2-(2-{[(2,3-dichlorobenzyl)sulfonyl]amino}ethyl)-1H indol-3-yl]ethoxy}benzoic acid] | 190
